Here are results for 1 molecule from PMC8379681 (Cell reports, 2021).

The term IC50 denotes the point on the concentration scale where inhibition reaches its midpoint. High values mean lower potency, low ones higher potency.

The test addresses SPAK (Homo sapiens, UniProt Q9UEW8). The format is biochemical.

Molecules are shown by their SMILES.

In turn, `Nc1ncnc2occ(-c3ccc(NC(=O)Nc4cc(C(F)(F)F)ccc4F)cc3)c12` [YU252, YU239252] showed an IC50 of 8.23 µM. That is a single-digit micromolar value.
